# Experiments:
# [1] = tested on: Vero; test: Inhibitory effect on replication of RNA virus coxsB-4 in Vero cell line; format: functional, cell-based; conditions: Chlorocebus sabaeus
# [2] = tested on: HeLa; test: Inhibitory effect on replication of RNA virus cell morphology in HeLa cell line.; format: functional, cell-based; conditions: Homo sapiens
# [3] = tested on: MT4; test: Inhibitory effect on replication of RNA virus HIV-2 in MT-4 cell line.; format: functional, cell-based; conditions: Homo sapiens
# [4] = tested on: Vero; test: Inhibitory effect on replication of RNA virus SV in Vero cell line.; format: functional, cell-based; conditions: Chlorocebus sabaeus
# [5] = tested on: Vero; test: Inhibitory effect on replication of RNA virus RNA synthesis in Vero cell line.; format: functional, cell-based; conditions: Chlorocebus sabaeus
# [6] = tested on: Vero; test: Inhibitory effect on replication of RNA virus TV in Vero cell line.; format: functional, cell-based; conditions: Chlorocebus sabaeus
# [7] = tested on: MDCK; test: cells; conditions: Canis lupus familiaris
# [8] = tested on: PRK; test: Inhibitory effect on replication of DNA virus Cell morphology on PRK cell line; format: functional, cell-based; conditions: Oryctolagus cuniculus
# [9] = tested on: HEL; test: Inhibitory effect on replication of DNA virus CMV (Davis) on HEL cell line.; format: functional, cell-based; conditions: Homo sapiens
# [10] = tested on: MDCK; test: cells; conditions: Canis lupus familiaris; remark: listed apart in the source
# [11] = tested on: MT4; test: Inhibitory effect on replication of RNA virus cell growth in MT-4 cell line.; format: functional, cell-based; conditions: Homo sapiens
# [12] = tested on: HeLa; test: Inhibitory effect on replication of RNA virus RSV in HeLa cell line; format: functional, cell-based; conditions: Homo sapiens
# [13] = tested on: HeLa; test: Inhibitory effect on replication of RNA virus coxsB-4 in HeLa cell line.; format: functional, cell-based; conditions: Homo sapiens
# [14] = Inhibitory effect on replication of DNA virus HSV-1 (KOS) in PRK cell line.; format: functional, cell-based; conditions: Oryctolagus cuniculus
# [15] = tested on: HeLa; test: cells; conditions: Homo sapiens
# [16] = tested on: PRK; test: Inhibitory effect on replication of DNA virus VV on PRK cell line.; format: functional, cell-based; conditions: Oryctolagus cuniculus
# [17] = Inhibitory effect on replication of DNA virus HSV-2 (G) in PRK cell line.; format: functional, cell-based; conditions: Oryctolagus cuniculus
# [18] = tested on: HeLa; test: Inhibitory effect on replication of RNA virus VSV in HeLa cell line.; format: functional, cell-based; conditions: Homo sapiens
# [19] = tested on: Vero; test: Inhibitory effect on replication of RNA virus JV in Vero cell line.; format: functional, cell-based; conditions: Chlorocebus sabaeus
# [20] = tested on: PRK; test: Inhibitory effect on replication of RNA virus VSV in PRK cell line.; format: functional, cell-based; conditions: Oryctolagus cuniculus
# [21] = tested on: HEL; test: Inhibitory effect on replication of DNA virus TK-VZV (07-1) on HEL cell line.; format: functional, cell-based; conditions: Homo sapiens
# [22] = tested on: HEL; test: Inhibitory effect on replication of DNA virus VZV (YS) on HEL cell line.; format: functional, cell-based; conditions: Homo sapiens
# [23] = tested on: Vero; test: Inhibitory effect on replication of RNA virus measles on Vero cell line.; format: functional, cell-based; conditions: Chlorocebus sabaeus
# [24] = tested on: MT4; test: Inhibitory effect on replication of RNA virus HIV-1 in MT-4 cell line.; format: functional, cell-based; conditions: Homo sapiens
# [25] = tested on: MDCK; test: Inhibitory effect on replication of RNA virus cell morphology in MDCK cell line.; format: functional, cell-based; conditions: Canis lupus familiaris
# [26] = tested on: Vero; test: Inhibitory effect on replication of RNA virus cell morphology in Vero cell line.; format: functional, cell-based; conditions: Chlorocebus sabaeus
# [27] = tested on: HEL; test: Inhibitory effect on replication of DNA virus VZV (Oka) on HEL cell line.; format: functional, cell-based; conditions: Homo sapiens
# [28] = tested on: HEL; test: Inhibitory effect on replication of DNA virus CMV (AD-169) on HEL cell line.; format: functional, cell-based; conditions: Homo sapiens
# [29] = tested on: Vero; test: Inhibitory effect on replication of RNA virus SFV in Vero cell line; format: functional, cell-based; conditions: Chlorocebus sabaeus
# [30] = tested on: Vero; test: Inhibitory effect on replication of RNA virus PV-3 in Vero cell line.; format: functional, cell-based; conditions: Chlorocebus sabaeus
# [31] = tested on: PRK; test: Inhibitory effect on replication of RNA virus cell morphology in PRK cell line.; format: functional, cell-based; conditions: Oryctolagus cuniculus
# [32] = tested on: Vero; test: Inhibitory effect on replication of RNA virus protein synthesis in Vero cell line.; format: functional, cell-based; conditions: Chlorocebus sabaeus
# [33] = tested on: HEL; test: Inhibitory effect on replication of DNA virus TK-VZV (YSR) on HEL cell line.; format: functional, cell-based; conditions: Homo sapiens
# [34] = tested on: Vero; test: Inhibitory effect on replication of RNA virus reo-1 in Vero cell line.; format: functional, cell-based; conditions: Chlorocebus sabaeus
# [35] = tested on: HEL; test: Inhibitory effect on replication of DNA virus Cell growth on HEL cell line.; format: functional, cell-based; conditions: Homo sapiens
Structure (SMILES),IC50 [1],IC50 [2],IC50 [3],IC50 [4],IC50 [6],IC50 [7],IC50 [8],IC50 [9],IC50 [10],IC50 [11],IC50 [12],IC50 [13],IC50 [14],IC50 [15],IC50 [16],IC50 [17],IC50 [18],IC50 [19],IC50 [20],IC50 [21],further results
Nc1ncnc2c1ncn2[C@@H]1C=C(CF)[C@@H](O)[C@H]1O,> 200 µg/mL,> 200 µg/mL,> 1.5 µg/mL,7 µg/mL,0.4 µg/mL,> 100 µg/mL,> 400 µg/mL,2.5 µg/mL,> 100 µg/mL,3 µg/mL,10 µg/mL,> 200 µg/mL,> 400 µg/mL,> 200 µg/mL,2 µg/mL,> 400 µg/mL,2 µg/mL,0.4 µg/mL,0.2 µg/mL,20 µg/mL,IC50 [5]: 5 µg/mL; IC50 [22]: 150 µg/mL; IC50 [23]: 10 µg/mL; IC50 [24]: > 1.5 µg/mL; IC50 [25]: > 100 µg/mL; IC50 [26]: 40 µg/mL; IC50 [27]: 70 µg/mL; IC50 [28]: 2.5 µg/mL; IC50 [29]: 200 µg/mL; IC50 [30]: 7 µg/mL; IC50 [31]: > 400 µg/mL; IC50 [32]: 65 µg/mL; IC50 [33]: 20 µg/mL; IC50 [34]: 2 µg/mL
COCC1=C[C@@H](n2cnc3c(N)ncnc32)[C@H](O)[C@@H]1O,> 400 µg/mL,> 400 µg/mL,> 40 µg/mL,70 µg/mL,20 µg/mL,> 100 µg/mL,> 400 µg/mL,25 µg/mL,> 100 µg/mL,45 µg/mL,100 µg/mL,> 200 µg/mL,> 400 µg/mL,> 200 µg/mL,20 µg/mL,> 400 µg/mL,150 µg/mL,20 µg/mL,20 µg/mL,100 µg/mL,IC50 [35]: 200 µg/mL; IC50 [22]: 300 µg/mL; IC50 [23]: 40 µg/mL; IC50 [24]: > 40 µg/mL; IC50 [25]: > 100 µg/mL; IC50 [26]: 400 µg/mL; IC50 [27]: 200 µg/mL; IC50 [28]: 40 µg/mL; IC50 [29]: > 400 µg/mL; IC50 [30]: 70 µg/mL; IC50 [31]: > 400 µg/mL; IC50 [33]: 60 µg/mL; IC50 [34]: 10 µg/mL

# Reference: ChEMBL document CHEMBL1126278, “New neplanocin analogues. 1. Synthesis of 6'-modified neplanocin A derivatives as broad-spectrum antiviral agents” (J Med Chem, 1992)
